Laboratory results published in patent publication US20240041042A1, “1-(PYRIDYL)-5-AZINYLPYRAZOLE DERIVATIVES, AND THEIR USE FOR CONTROL OF UNDESIRED PLANT GROWTH” (Bayer Aktiengesellschaft, priority 2020, published 2024).
Read-outs that look alike come from different tables or passages of the source.

Columns and labels:
Type in all cases: in vivo
[1] = tested on: Abutilon theophrasti (ABUTH); experiment: Pre-emergence herbicidal action against ABUTH; conditions: Dosage column 320 g/ha (title prints 3200 g/ha); scored visually after about 3 weeks; 100% = plants have died
Procedure, shortened: (§1)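 Greenhouse pot trial: seeds sown, soil-covered, sprayed before emergence with compound in water (0.5% additive; 600 l/ha; ≤320 g/ha). Scoring visual, ~3 weeks, 0–100% scale vs untreated.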

[2] = tested on: Alopecurus myosuroides (ALOMY); experiment: Pre-emergence herbicidal action against ALOMY; conditions: scored visually after about 3 weeks, 100% = plants have died
Procedure, shortened: as §1

[3] = tested on: Amaranthus retroflexus (AMARE); experiment: Pre-emergence herbicidal action against AMARE; conditions: visual scoring after about 3 weeks vs untreated controls
Procedure, shortened: as §1

Avena fatua (AVEFA) [4] = experiment: Pre-emergence herbicidal action against AVEFA; conditions: visual scoring after about 3 weeks vs untreated controls
Procedure, shortened: as §1

[5] = tested on: Echinochloa crus-galli (ECHCG); experiment: Pre-emergence herbicidal action against ECHCG
Procedure, shortened: as §1

Lolium rigidum (LOLRI) [6] = experiment: Pre-emergence herbicidal action against LOLRI
Procedure, shortened: as §1

[7] = tested on: Matricaria inodora (MATIN); experiment: Pre-emergence herbicidal action against MATIN; conditions: dosage 320 g/ha
Procedure, shortened: as §1

[8] = tested on: Pharbitis purpurea (PHBPU); experiment: Pre-emergence herbicidal action against PHBPU; conditions: dosage 320 g/ha
Procedure, shortened: as §1

[9] = tested on: Polygonum convolvulus (POLCO); experiment: Pre-emergence herbicidal action against POLCO
Procedure, shortened: as §1

Setaria viridis (SETVI) [10] = experiment: Pre-emergence herbicidal action against SETVI
Procedure, shortened: as §1

[11] = tested on: Verconica persica (VERPE); experiment: Pre-emergence herbicidal action against VERPE; conditions: dosage 320 g/ha
Procedure, shortened: as §1

Viola tricolor (VIOTR) [12] = experiment: Pre-emergence herbicidal action against VIOTR
Procedure, shortened: as §1

[13] = tested on: Alopecurus myosuroides (ALOMY); experiment: Post-emergence herbicidal action against ALOMY; conditions: visual rating about 3 weeks after treatment vs untreated controls (100% = plants have died, 0% = like control plants)
Procedure, shortened: (§2)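 Doses of 320 g/ha or lower, suffixes a, b and c marking different dosages, were applied post-emergence at the one-leaf stage in 600 l/ha water with 0.5% additive. Damage was assessed visually after about 3 weeks in the greenhouse.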

[14] = tested on: Amaranthus retroflexus (AMARE); experiment: Post-emergence herbicidal action against AMARE
Procedure, shortened: as §2

Avena fatua (AVEFA) [15] = experiment: Post-emergence herbicidal action against AVEFA; conditions: visual rating about 3 weeks after treatment
Procedure, shortened: as §2

[16] = tested on: Echinochloa crus-galli (ECHCG); experiment: Post-emergence herbicidal action against ECHCG
Procedure, shortened: as §2

Lolium rigidum (LOLRI) [17] = experiment: Post-emergence herbicidal action against LOLRI
Procedure, shortened: as §2

[18] = tested on: Matricaria inodora (MATIN); experiment: Post-emergence herbicidal action against MATIN
Procedure, shortened: as §2

[19] = tested on: Pharbitis purpurea (PHBPU); experiment: Post-emergence herbicidal action against PHBPU; conditions: dosage 320 g/ha
Procedure, shortened: as §2

[20] = tested on: Polygonum convolvulus (POLCO); experiment: Post-emergence herbicidal action against POLCO
Procedure, shortened: as §2

Setaria viridis (SETVI) [21] = experiment: Post-emergence herbicidal action against SETVI
Procedure, shortened: as §2

[22] = tested on: Verconica persica (VERPE); experiment: Post-emergence herbicidal action against VERPE
Procedure, shortened: as §2

Viola tricolor (VIOTR) [23] = experiment: Post-emergence herbicidal action against VIOTR
Procedure, shortened: as §2

Zea mays (ZEAMX) = tested on: Zea mays (ZEAMX)
Procedure, shortened: (§3)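 One-leaf-stage crops (2–3 wk post-sowing, sandy loam, greenhouse) sprayed on green parts; 0.5% additive, 600 l/ha water. Rated by eye ~3 wk later, % vs untreated; suffixes a/b/c mark different dosages.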

Oryza sativa (ORYSA) = conditions: crop plant compatibility
Procedure, shortened: as §3

Row | SMILES | Pre-emergence action against ABUTH [1] [%] | Pre-emergence action against ALOMY ([2]; 80 g/ha) [%] | Pre-emergence action against ALOMY ([2]; 320 g/ha) [%] | Pre-emergence action against AMARE in % ([3]; 80 g/ha) [%] | Pre-emergence action against AMARE in % ([3]; 320 g/ha) [%] | Pre-emergence action against AVEFA in % (Avena fatua (AVEFA) [4]; 320 g/ha) [%] | Pre-emergence action against ECHCG in % ([5]; dosage 320 g/ha) [%] | Pre-emergence action against LOLRI in % (Lolium rigidum (LOLRI) [6]; dosage 80 g/ha) [%] | Pre-emergence action against LOLRI in % (Lolium rigidum (LOLRI) [6]; dosage 320 g/ha) [%] | Pre-emergence action against MATIN in % [7] [%] | Pre-emergence action against PHBPU in % [8] [%] | Pre-emergence action against POLCO in % ([9]; dosage 80 g/ha) [%] | Pre-emergence action against POLCO in % ([9]; dosage 320 g/ha) [%] | Pre-emergence action against SETVI in % (Setaria viridis (SETVI) [10]; dosage 320 g/ha) [%] | Pre-emergence action against VERPE in % [11] [%] | Pre-emergence action against VIOTR in % (Viola tricolor (VIOTR) [12]; 320 g/ha, Viola tricolor) [%] | Pre-emergence action against VIOTR in % (Viola tricolor (VIOTR) [12]; dosage 80 g/ha) [%] | Post-emergence action against AVEFA in % (Avena fatua (AVEFA) [15]; 80 g/ha) [%] | Post-emergence action against ECHCG in % ([16]; dosage 80 g/ha) [%] | Post-emergence action against VERPE in % ([22]; dosage 80 g/ha) [%] | further results
1 | Cc1cccnc1-n1nc(OCC(=O)O)c(Br)c1-c1ccc(F)nc1 [Example I-324] | 80 | 100 | 100 | 100 | 100 | 100 | 100 | 100 | 100 | 90 | 90 | 90 | 100 | 100 | 100 | 100 | 100 | 100 | 90 | 90 | Post-emergence action against ALOMY in % ([13]; 320 g/ha): 100%; Post-emergence action against AMARE in % ([14]; 80 g/ha, visual rating about 3 weeks after treatment vs untreated controls (100% = plants have died, 0% = like control plants)): 90%; Post-emergence action against AMARE in % ([14]; 320 g/ha, visual rating about 3 weeks after treatment): 90%; Post-emergence action against AVEFA in % (Avena fatua (AVEFA) [15]; 320 g/ha): 100%; Post-emergence action against ECHCG in % ([16]; dosage 320 g/ha): 90%; Post-emergence action against LOLRI in % (Lolium rigidum (LOLRI) [17]; dosage 320 g/ha): 90%; Post-emergence action against MATIN in % ([18]; dosage 320 g/ha): 80%; Post-emergence action against PHBPU in % [19]: 90%; Post-emergence action against POLCO in % ([20]; dosage 80 g/ha): 80%; Post-emergence action against POLCO in % ([20]; dosage 320 g/ha): 80%; Post-emergence action against SETVI in % (Setaria viridis (SETVI) [21]; dosage 80 g/ha): 80%; Post-emergence action against SETVI in % (Setaria viridis (SETVI) [21]; dosage 320 g/ha): 90%; Post-emergence action against VERPE in % ([22]; 320 g/ha, VERPE): 90%; Post-emergence action against VIOTR in % (Viola tricolor (VIOTR) [23]; 80 g/ha): 80%; Post-emergence action against VIOTR in % (Viola tricolor (VIOTR) [23]; 320 g/ha): 80%; Post-emergence action against ZEAMX in % (Zea mays (ZEAMX); crop plant compatibility, 80 g/ha, effect vs untreated controls): 0%
2 | CCOC(=O)[C@@H](C)Oc1nn(-c2ncccc2F)c(-c2ccc(F)nc2)c1Br [Example I-33] | 80 | 100 | 100 | 90 | 100 | 100 | 100 | 90 | 100 | 90 | 90 | 90 | 100 | 100 | 100 | 100 | 100 | 90 | 90 | 90 | Pre-emergence action against AVEFA in % (Avena fatua (AVEFA) [4]; 80 g/ha): 80%; Pre-emergence action against ECHCG in % ([5]; dosage 80 g/ha): 90%; Pre-emergence action against SETVI in % (Setaria viridis (SETVI) [10]; dosage 80 g/ha): 90%; Post-emergence action against ALOMY in % ([13]; 80 g/ha): 90%; Post-emergence action against LOLRI in % (Lolium rigidum (LOLRI) [17]; dosage 80 g/ha): 80%; Post-emergence action against MATIN in % ([18]; dosage 80 g/ha): 80%; Post-emergence action against ORYSA in % (Oryza sativa (ORYSA); 20 g/ha, effect vs untreated controls): 0%; Post-emergence action against ORYSA in % (Oryza sativa (ORYSA); 80 g/ha, effect in comparison to untreated controls): 10%; Post-emergence action against ZEAMX in % (crop plant compatibility) (Zea mays (ZEAMX); 20 g/ha, ZEAMX, effect in comparison to untreated controls): 10%
